{"source": "patent US9663764B2", "about": "“Generation of cardiomyocytes from human pluripotent stem cells” (Wisconsin Alumni Research Foundation, priority 2011, dated 2017)", "assay_type_in_all_cases": "cell-based, human", "key": {"[1]": {"tested_on": "Smad1/5 and Smad2 phosphorylation in 19-9-11 ishcat cells", "assay": "Smad1/5 and Smad2 phosphorylation, western blot", "conditions": "12 μM CH treatment", "experimental": "Western Blot Analysis: Cells were lysed in M-PER Mammalian Protein Extraction Reagent (Pierce) in the presence of Halt Protease and Phosphatase Inhibitor Cocktail (Pierce). Proteins were separated by 10% Tris-Glycine SDS/PAGE (Invitrogen) under denaturing conditions and transferred to a nitrocellulose membrane. After blocking with 5% milk in TBST, the membrane was incubated with primary antibody overnight at 4° C. The membrane was then washed, incubated with an anti-mouse/rabbit peroxidase-conjugated secondary antibody (1:1000, Cell Signaling) at room temperature for 1 hr, and developed by SuperSignal chemiluminescence (Pierce).\nTo determine whether canonical Wnt signaling requires TGFβ superfamily signaling to induce cardiogenesis, the inventors quantified cTnT+ cell generation in 19-9-11 ishcat-2 cells when Activin A and BMP4 signaling antagonists were presented during the first 24 hr of cardiomyocyte induction with 12 μM CH. All samples were treated with dox at 48 hours. […] To further investigate the role of TGFβ superfamily signaling in Wnt pathway-mediated cardiogenesis the inventors assessed Smad1/5 and Smad2 phosphorylation, downstream of BMP4 and Activin A signaling respectively. As expected, substantial Smad1/5 and Smad2 phosphorylation was detected in cells that had been treated with Activin A and BMP4 (FIGS. 9B and 10A)."}, "[2]": {"tested_on": "19-9-11 and IMR90C4 iPSCs", "assay": "Cardiac directed differentiation via small molecules on Synthemax plates, cTnT/MF20 flow cytometry", "conditions": "12 μM CH at day 0 and 5 μM IWP4 at day 3, day 15", "experimental": "(§1) cardiac directed differentiation via small molecules: Cells were dissociated and plated as described in the Activin/BMP4 protocol. When hPS cells maintained on Matrigel® or Synthemax plates achieved confluence, cells were treated with CH in RPMI/B27-insulin for 24 hr (day 0 to day 1). The medium was changed to RPMI/B27-insulin, followed by 2 μg/ml dox treatment at different times between day 1 and day 5 for transgenic cell lines. For genetically unmodified lines, 5 μM IWP2 (Tocris) or IWP4 (Stemgent) was added at day 3 and removed during the day 5 medium change. Cells were maintained in the RPMI/B27 starting from day 7, with the medium changed every 3 days.\n(§2) Flow Cytometry: Cells were dissociated into single cells and then fixed with 1% paraformaldehyde for 20 min at room temperature and stained with primary and secondary antibodies in PBS plus 0.1% Triton X-100 and 0.5% BSA. For the cell proliferation assay, a 17-hour pulse of BrdU was performed to identify dividing cardiomyocytes (Zhang et al., Circ. Res. 104, e30-41 (2009)). Data were collected on a FACSCaliber flow cytometer (Beckton Dickinson) and analyzed using FlowJo.\nWhile shRNA inhibition of β-catenin provides specific and facile temporal regulation of canonical Wnt signaling, this method requires genetic modification of the hPS cell line which limits its potential clinical utility. […]"}, "[3]": {"tested_on": "19-9-11 shcat-2 and scramble lines", "assay": "Nanog/Isl1 immunostaining of CH-treated 19-9-11 shcat-2 and scramble lines", "experimental": "Immunostaining: Cells were fixed with 4% paraformaldehyde for 15 min at room temperature and then stained with primary and secondary antibodies in PBS plus 0.4% Triton X-100 and 5% non-fat dry milk (Bio-Rad). Nuclei were stained with Gold Anti-fade Reagent with DAPI (Invitrogen). An epifluorescence microscope (Leica DM IRB) with a QImaging® Retiga 4000R camera was used for imaging analysis. To test whether induction of cardiomyocyte differentiation by GSK3 inhibitors requires β-catenin, the inventors treated the shcat-2 and scramble 19-9-11 lines with CH in mTeSR1 medium. While the shcat-2 line maintained an undifferentiated morphology, the scramble line appeared to undergo differentiation (FIG. 2E), similar to non-transduced lines treated with CH (FIGS. 1B and 2B). Induction of differentiation following CH treatment in the scramble control was further indicated by diminished SOX2 and NANOG expression at day 4 (FIG. 3C). […] After 4 days of CH treatment in mTeSR1, the percentage of cells expressing Oct4 decreased to 61% in the scramble line, while 98% of the shcat-2 cells expressed Oct4 (FIG. 3D). […] To better understand early mesoderm induction via GSK3 inhibition, the inventors analyzed expression of the early mesoderm gene T in scramble and shcat-2 19-9-11 lines. As CH concentration increased, the ratio of T expression in scramble to the shcat-2 line increased (FIG. 3E). […]"}, "[4]": {"tested_on": "TCF/LEF promoter activity in H9-7TGP cells", "assay": "7TGP TCF/LEF promoter-reporter (GFP) assay after CH treatment", "text": "In order to probe the activation of canonical Wnt/β-catenin signaling during hPS cell specification to cardiomyocytes, the inventors generated a series of promoter-reporter cell lines in H1 and H9 hESC, and 19-9-11 human iPSC lines. These reporter lines, integrated with a lentiviral 7TGP vector, express GFP under control of a consensus TCF/LEF binding sequence promoter which reports β-catenin activation (FIG. 2A) (Fuerer and Nusse, PLoS One 5:e9370 (2010)). […] Approximately 50% of H9-7TGP cells expressed GFP at 4 days post-addition of 15 μM CH."}, "[5]": {"tested_on": "19-9-11 iPSCs", "assay": "Cardiac directed differentiation via small molecules on Matrigel, cTnT/MF20 flow cytometry", "conditions": "12 μM CH treatment alone, after 15 days", "experimental": "as §1, §2\nWhile shRNA inhibition of β-catenin provides specific and facile temporal regulation of canonical Wnt signaling, this method requires genetic modification of the hPS cell line which limits its potential clinical utility. The inventors next used the mechanistic insight these modified lines provided regarding the sufficiency of canonical Wnt signaling in cardiomyogenesis to develop a completely defined, growth factor free method of efficiently generating cardiomyocytes from unmodified hPS cell lines using small molecules. First, 19-9-11 iPSCs were maintained in mTeSR1 on Matrigel® for five days, and then the medium was switched to RPMI/B27-insulin containing 12 μM CH. IWP4 and IWP2, which prevent palmitylation of Wnt proteins by porcupine thereby blocking Wnt protein secretion and activity (Chen et al., Nat. Chem. Biol. 5:100-107 (2009)), were used to inhibit Wnt signaling. […] Similar to results obtained with the 19-9-11 ishcat-1 cell line, CH treatment of 19-9-11 cells alone only generated 16% cTNT+ or MF20+ cells after 15 days, while adding 5 μM IWP4 or IWP2 at day 3 increased this to 87% cTNT+ or MF20+ cells. […] In order to achieve fully defined culture conditions, Matrigel® was replaced with a defined peptide acrylate surface (Synthemax) during both hPS cell expansion and differentiation. […] Thus, optimization of canonical WNT signaling via stage-specific addition of small molecule agonists and antagonists produces high yields of functional cardiomyocytes in a completely defined, growth factor free culture system."}}, "data": [{"compound": "Cc1c[nH]c(-c2cnc(NCCNc3ccc(C#N)cn3)nc2-c2ccc(Cl)cc2Cl)n1", "note": "[CH]", "values": [{"measurement": "Smad1/5 and Smad2 activation", "setting": "[1]", "result": "levels comparable to those induced by Activin A and BMP4"}, {"measurement": "cTNT+ or MF20+ cells", "setting": "[2]", "result": "approximately 85%"}, {"measurement": "Nanog/Isl1 immunostaining", "setting": "[3]; scramble cell line, 15 μM CH in mTeSR1 for 4 days", "result": "substantial numbers of Nanog−/Isl1+ cells"}, {"measurement": "Nanog/Isl1 immunostaining", "setting": "[3]; shcat-2 cells treated with CH", "result": "only Nanog+/Isl1− cells"}, {"measurement": "H9-7TGP cells expressing GFP", "setting": "[4]; 15 μM CH, 4 days post-addition", "result": "Approximately 50%"}, {"measurement": "TCF/LEF promoter activity", "setting": "[4]; H9-7TGP reporter line, CH in mTeSR1 for 4 days", "result": "activated TCF/LEF promoter activity in a CH concentration-dependent manner"}, {"measurement": "cTNT+ or MF20+ cells", "setting": "[5]", "result": 16, "unit": "%"}]}]}
